System: 233499-124-R-J3-PDC spheroids with HUVEC/MSC, viability
Experiment: Anticancer human tumor 233499-124-R-J3-PDC patient-derived colon adenocarcinoma cell line growth inhibition [PI3K]
Conditions: for IC50: curve of first compound; for viability, T/C: stronger effect = lower value; active = viability on the fitted dose curve at most 10% of control; inactive = the rest
Method in brief: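 High-throughput combination screen: PI3K inhibitors crossed with targeted small molecules on complex spheroids of tumor cells, HUVEC and MSCs at 37 degrees C, 5% CO2. Top concentration was at or near clinical Cmax (otherwise 10 microM), with half-log decrements.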

[1] = second compound 0.0316 µM, first compound 0.0316 µM
[2] = second compound 0.0316 µM, first compound 0.1 µM
[3] = second compound 0.0316 µM, first compound 0.316 µM
[4] = second compound 0.0316 µM, first compound 1 µM
[5] = second compound 0.0316 µM, first compound 3.16 µM
[6] = second compound 0.0316 µM, first compound 10 µM
[7] = second compound 0.1 µM, first compound 0.0316 µM
[8] = second compound 0.1 µM, first compound 0.1 µM
[9] = second compound 0.1 µM, first compound 0.316 µM
[10] = second compound 0.1 µM, first compound 1 µM
[11] = second compound 0.1 µM, first compound 3.16 µM
[12] = second compound 0.1 µM, first compound 10 µM
[13] = second compound 0.316 µM, first compound 0.0316 µM
[14] = second compound 0.316 µM, first compound 0.1 µM
[15] = second compound 0.316 µM, first compound 0.316 µM
[16] = second compound 0.316 µM, first compound 1 µM
[17] = second compound 0.316 µM, first compound 3.16 µM
[18] = second compound 0.316 µM, first compound 10 µM
[19] = second compound 1 µM, first compound 0.0316 µM
[20] = second compound 1 µM, first compound 0.1 µM
[21] = second compound 1 µM, first compound 0.316 µM
[22] = second compound 1 µM, first compound 1 µM
[23] = second compound 1 µM, first compound 3.16 µM
[24] = second compound 1 µM, first compound 10 µM
[25] = second compound 3.16 µM, first compound 0.0316 µM
[26] = second compound 3.16 µM, first compound 0.1 µM
[27] = second compound 3.16 µM, first compound 0.316 µM
[28] = second compound 3.16 µM, first compound 1 µM
[29] = second compound 3.16 µM, first compound 3.16 µM
[30] = second compound 3.16 µM, first compound 10 µM
[31] = second compound 10 µM, first compound 0.0316 µM
[32] = second compound 10 µM, first compound 0.1 µM
[33] = second compound 10 µM, first compound 0.316 µM
[34] = second compound 10 µM, first compound 1 µM
[35] = second compound 10 µM, first compound 3.16 µM
[36] = second compound 10 µM, first compound 10 µM
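Also: spheroids exposed to agents for seven days before readout.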
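For viability, T/C in this document: percent viability relative to DMSO vehicle control taken as 100%.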

C=CC(=O)N1CCN(c2nc(=O)n(-c3c(C)ccnc3C(C)C)c3nc(-c4c(O)cccc4F)c(F)cc23)C(C)C1 (stereo unspecified) + Cc1nc(NC(=O)N2CCCC2C(N)=O)sc1-c1ccnc(C(C)(C)C(F)(F)F)c1
inactive: viability, T/C [1] 89.3% | viability, T/C [2] 94.8% | viability, T/C [3] 99.3% | viability, T/C [4] 106% | viability, T/C [5] 100% | viability, T/C [6] 85% | viability, T/C [7] 84.8% | viability, T/C [8] 96.3% | viability, T/C [9] 93% | viability, T/C [10] 81.4% | viability, T/C [11] 79.5% | viability, T/C [12] 80.2% | viability, T/C [13] 95.2% | viability, T/C [14] 96.7% | viability, T/C [15] 70.1% | viability, T/C [16] 82.2% | viability, T/C [17] 67.5% | viability, T/C [18] 92.6% | viability, T/C [19] 71.7% | viability, T/C [20] 92.2% | viability, T/C [21] 79.4% | viability, T/C [22] 77.3% | viability, T/C [23] 80.9% | viability, T/C [24] 79.8% | viability, T/C [25] 39.4% | viability, T/C [26] 51.1% | viability, T/C [27] 71.8% | viability, T/C [28] 34.1% | viability, T/C [29] 60.9% | viability, T/C [30] 67.9% | viability, T/C [31] 24% | viability, T/C [32] 41.6% | viability, T/C [33] 24.9% | viability, T/C [34] 41.8% | viability, T/C [35] 37.6% | viability, T/C [36] 27.2%
< 0.0316 µM: IC50 (second compound 3.16 µM) | IC50 (second compound 10 µM)
> 10 µM: IC50 (second compound 0.0316 µM) | IC50 (second compound 0.1 µM) | IC50 (second compound 0.316 µM) | IC50 (second compound 1 µM)

CC(Cn1ccc(-c2ccc(C#N)c(Cl)c2)n1)NC(=O)c1cc(C(C)O)[nH]n1 (stereo unspecified) + Cc1nc(NC(=O)N2CCCC2C(N)=O)sc1-c1ccnc(C(C)(C)C(F)(F)F)c1
< 0.0316 µM: IC50 (second compound 10 µM)
inactive: viability, T/C [1] 88.9% | viability, T/C [2] 81.6% | viability, T/C [3] 101% | viability, T/C [4] 97.3% | viability, T/C [5] 95.6% | viability, T/C [6] 85.6% | viability, T/C [7] 102% | viability, T/C [8] 106% | viability, T/C [9] 98.7% | viability, T/C [10] 108% | viability, T/C [11] 72.6% | viability, T/C [12] 92.5% | viability, T/C [13] 55.1% | viability, T/C [14] 74.3% | viability, T/C [15] 105% | viability, T/C [16] 100% | viability, T/C [17] 86.7% | viability, T/C [18] 77.6% | viability, T/C [19] 77.2% | viability, T/C [20] 76.5% | viability, T/C [21] 83.7% | viability, T/C [22] 50.5% | viability, T/C [23] 63.6% | viability, T/C [24] 81.9% | viability, T/C [25] 61.8% | viability, T/C [26] 53.8% | viability, T/C [27] 59.7% | viability, T/C [28] 64.6% | viability, T/C [29] 39.6% | viability, T/C [30] 52.5% | viability, T/C [31] 30.7% | viability, T/C [32] 33.9% | viability, T/C [33] 35% | viability, T/C [34] 42.2% | viability, T/C [35] 21.9% | viability, T/C [36] 38.9%
5.95 µM: IC50 (second compound 3.16 µM)
> 10 µM: IC50 (second compound 0.0316 µM) | IC50 (second compound 0.1 µM) | IC50 (second compound 0.316 µM) | IC50 (second compound 1 µM)

Cn1nccc1Nc1nccc(-c2ccn(C(CO)c3ccc(Cl)c(F)c3)c(=O)c2)n1 (stereo unspecified) + Cc1nc(NC(=O)N2CCCC2C(N)=O)sc1-c1ccnc(C(C)(C)C(F)(F)F)c1
< 0.0316 µM: IC50 (second compound 10 µM)
0.853 µM: IC50 (second compound 3.16 µM)
8.61 µM: IC50 (second compound 0.1 µM)
3.16 µM: IC50 (second compound 1 µM)
> 10 µM: IC50 (second compound 0.0316 µM) | IC50 (second compound 0.316 µM)
inactive: viability, T/C [1] 82.9% | viability, T/C [2] 98.6% | viability, T/C [3] 73% | viability, T/C [4] 91.6% | viability, T/C [5] 68.9% | viability, T/C [6] 58.2% | viability, T/C [7] 92.6% | viability, T/C [8] 100% | viability, T/C [9] 68.7% | viability, T/C [10] 83.3% | viability, T/C [11] 82.7% | viability, T/C [12] 45.2% | viability, T/C [13] 94.6% | viability, T/C [14] 63.8% | viability, T/C [15] 67.9% | viability, T/C [16] 65.7% | viability, T/C [17] 57.7% | viability, T/C [18] 47.8% | viability, T/C [19] 89.2% | viability, T/C [20] 81.5% | viability, T/C [21] 31.1% | viability, T/C [22] 57.6% | viability, T/C [23] 52.3% | viability, T/C [24] 64.8% | viability, T/C [25] 68.2% | viability, T/C [26] 58.7% | viability, T/C [27] 54.8% | viability, T/C [28] 53.8% | viability, T/C [29] 38.4% | viability, T/C [30] 34.8% | viability, T/C [31] 33.8% | viability, T/C [32] 35.6% | viability, T/C [33] 46% | viability, T/C [34] 22.7% | viability, T/C [35] 14.5% | viability, T/C [36] 17.5%
